From US4587333A, “Cephalosporins and their production” (Takeda Chemical Industries, Ltd., priority 1983, dated 1986)
In brackets after ≈: the same amount, converted by molar mass.

Columns and labels:
[1] = stability in aqueous solution; assay type: physicochemical
[2] = property of the substance (amphoteric); assay type: physicochemical; details: dihydrochloride is neutral
[3] = solubility; assay type: physicochemical
[4] = tested on: Escherichia coli 0-111; assay: therapeutic effect to infectious disease of mice; assay type: in vivo; details: 0111; mice infected with Escherichia coli 0-111; subcutaneous (SC); TAN-547 hydrochloride(s)
[5] = tested on: Staphylococcus aureus FDA 209P; assay: antimicrobial spectrum (minimal inhibitory concentration); assay type: cell-based; details: FDA209P, pH 7.0
From the text: (§1) The antimicrobial spectra of the compound (I) are shown in Table 1. | *Culture medium: 17.5 g of Bacto antibiotic medium 3 (Difco), 5 g of | Bacto yeast extract (Difco), 20 g of Bacto agar (Difco), 1 l of distilled | water; pH 7.0 | The amount of inoculated microorganism: 1 loopful of about 10^6 /ml o | microorganism suspension.

[6] = tested on: Escherichia coli NIHJ JC-2; assay: as above; assay type: cell-based; details: NIHJJC2, pH 7.0
From the text: as §1

[7] = tested on: Proteus vulgalis IFO 3988; assay: as above; assay type: cell-based; details: pH 7.0
From the text: as §1

[8] = tested on: Bacillus megaterium IFO 12108; assay: as above; assay type: cell-based; details: Priestia megaterium, IFO12108, pH 7.0
From the text: as §1

[9] = tested on: Klebsiella pneumoniae IFO 3317; assay: as above; assay type: cell-based; details: IFO3317, pH 7.0
From the text: as §1

[10] = tested on: Alcaligenes faecalis IFO 13111; assay: as above; assay type: cell-based; details: IFO13111, pH 7.0
From the text: as §1

[11] = tested on: Citrobacter freundii IFO 12681; assay: as above; assay type: cell-based; details: IFO12681, pH 7.0
From the text: as §1

[12] = tested on: Serratia marcescens IFO 12648; assay: as above; assay type: cell-based; details: IFO12648, pH 7.0
From the text: as §1

[13] = tested on: Acinetobacter calcoaceticus IFO 12552; assay: as above; assay type: cell-based; details: IFO12552, pH 7.0
From the text: as §1

[14] = tested on: Brevibacterium thiogenitalis ATCC 19240; assay: as above; assay type: cell-based; details: Corynebacterium glutamicum, ATCC19240, pH 7.0
From the text: as §1

[15] = tested on: Salmonella typhimurium IFO 12529; assay: as above; assay type: cell-based; details: Salmonella enterica, pH 7.0
From the text: as §1

[16] = tested on: Pseudomonas aeruginosa IFO 3080; assay: as above; assay type: cell-based; details: IFO3080, pH 7.0
From the text: as §1

[17] = tested on: Bacillus subtilis NIHJ PCI219; assay: as above; assay type: cell-based; details: NIHJPCI219, pH 7.0
From the text: as §1

[18] = tested on: β-lactamase produced by Escherichia coli TN 713; assay: stability to β-lactamase (relative ratio of hydrolysis rate); assay type: biochemical; details: PCG rated at 100
From the text: (§2) In the above Table 3, the stabilities against the β-lactamase produced by Escherichia coli TN 713 and β-lactamase produced by Klebsiella oxytoca TN 1719 are expressed on a numerical scale, whereby the stabilities of PCG against these are rated at 100. Also, the stabilities against the β-lactamase produced by Serratia marcescens and β-lactamase produced by Proteus vulgaris are expressed on a numerical scale, whereby the stabilities of CER against these are rated at 100.

[19] = tested on: β-lactamase produced by Klebsiella oxytoca TN 1719; assay: as above; assay type: biochemical; details: PCG rated at 100
From the text: as §2

[20] = tested on: β-lactamase produced by Serratia marcescens TN 81; assay: as above; assay type: biochemical; details: CER rated at 100
From the text: as §2

[21] = tested on: β-lactamase produced by Proteus vulgalis GN 4413; assay: as above; assay type: biochemical; details: CER rated at 100
From the text: as §2

[22] = acute toxicity, subcutaneous administration to mice; assay type: in vivo; details: subcutaneously, 1 g/kg
[23] = tested on: β-lactamase; assay: stability to β-lactamase (overall statement); assay type: biochemical; details: as seen from Table 3
From the text: as §2

[24] = dimethylsulfoxide, methanol, acetone, ethyl acetate
[25] = water, aqueous acetone, aqueous alcohol

## CC(N)C(=O)NC(C)C(=O)NC(C)C(=O)NC(CCCNC(=N)N)C(O)CC(=O)OCC1=C(C(=O)O)N2C(=O)C(NC(=O)CCCC(N)C(=O)O)C2SC1 (centres unmarked) [TAN-547 F]
[1]; acidic aqueous solution
  Stability: Slightly unstable
[1]; basic aqueous solution
  Stability: Unstable
[1]; neutral aqueous solution
  Stability: Slightly unstable
[2]
  Property of the substance: Amphoteric substance
[3]; [24]
  Solubility: Hardly soluble
[3]; [25]
  Solubility: Easily soluble
[4]
  ED50: 25 mg/kg
[5]
  MIC: 12.5 µg/mL (≈ 15.9 µM)
[6]
  MIC: > 100 µg/mL
[7]
  MIC: 100 µg/mL (≈ 127 µM)
[8]
  MIC: 1.56 µg/mL (≈ 1.98 µM)
[9]
  MIC: 100 µg/mL (≈ 127 µM)
[10]
  MIC: 12.5 µg/mL (≈ 15.9 µM)
[11]
  MIC: > 100 µg/mL
[12]
  MIC: > 100 µg/mL
[13]
  MIC: 100 µg/mL (≈ 127 µM)
[14]
  MIC: 3.13 µg/mL (≈ 3.98 µM)
[15]
  MIC: 100 µg/mL (≈ 127 µM)
[16]
  MIC: > 100 µg/mL
[17]
  MIC: 1.56 µg/mL (≈ 1.98 µM)

## CCN1CCN(C(=O)N[C@@H](C(=O)N[C@@H]2C(=O)N3C(C(=O)O)=C(CSc4nnnn4C)CS[C@H]23)c2ccc(O)cc2)C(=O)C1=O [CPZ, cefoperazone, reference compound]
[18]
  Relative ratio of hydrolysis rate: 11.2
[19]
  Relative ratio of hydrolysis rate: 1.55
[20]
  Relative ratio of hydrolysis rate: 11.6
[21]
  Relative ratio of hydrolysis rate: 10.5

## O=C(Cc1cccs1)N[C@@H]1C(=O)N2C(C(=O)[O-])=C(C[n+]3ccccc3)CS[C@H]12 [CER, cephaloridine, reference compound]
[18]
  Relative ratio of hydrolysis rate: 21
[19]
  Relative ratio of hydrolysis rate: 30
[20]
  Relative ratio of hydrolysis rate: 100
[21]
  Relative ratio of hydrolysis rate: 100

## CC1(C)S[C@@H]2[C@H](NC(=O)Cc3ccccc3)C(=O)N2[C@H]1C(=O)O [PCG, benzylpenicillin, reference compound]
[18]
  Relative ratio of hydrolysis rate: 100
[19]
  Relative ratio of hydrolysis rate: 100
[20]
  Relative ratio of hydrolysis rate: 12
[21]
  Relative ratio of hydrolysis rate: 16

## CC(N)C(=O)NC(CCCNC(=N)N)C(O)CC(=O)OCC1=C(C(=O)O)N2C(=O)C(NC(=O)CCCC(N)C(=O)O)C2SC1 (centres unmarked) [TAN-547 D]
[1]; acidic aqueous solution
  Stability: Slightly unstable
[1]; basic aqueous solution
  Stability: Unstable
[1]; neutral aqueous solution
  Stability: Slightly unstable
[2]
  Property of the substance: Amphoteric substance
[22]
  death: no death was observed
[3]; [24]
  Solubility: Hardly soluble
[3]; [25]
  Solubility: Easily soluble
[4]
  ED50: 9.92 mg/kg
[5]
  MIC: 25 µg/mL (≈ 38.8 µM)
[6]
  MIC: 50 µg/mL (≈ 77.6 µM)
[7]
  MIC: 50 µg/mL (≈ 77.6 µM)
[8]
  MIC: 0.78 µg/mL (≈ 1.21 µM)
[9]
  MIC: 100 µg/mL (≈ 155 µM)
[10]
  MIC: 12.5 µg/mL (≈ 19.4 µM)
[11]
  MIC: > 100 µg/mL
[12]
  MIC: > 100 µg/mL
[13]
  MIC: 50 µg/mL (≈ 77.6 µM)
[14]
  MIC: 1.56 µg/mL (≈ 2.42 µM)
[15]
  MIC: 50 µg/mL (≈ 77.6 µM)
[16]
  MIC: > 100 µg/mL
[17]
  MIC: 0.78 µg/mL (≈ 1.21 µM)

## CC(N)C(=O)NC(CCCNC(=N)N)C(O)CC(=O)OCC1=C(C(=O)O)N2C(=O)C(NC=O)(NC(=O)CCCC(N)C(=O)O)C2SC1 (centres unmarked) [TAN-547 A]
[1]; acidic aqueous solution
  Stability: Unstable
[1]; basic aqueous solution
  Stability: Unstable
[1]; neutral aqueous solution
  Stability: slightly unstable
[2]
  Property of the substance: Amphoteric substance
[23]
  stability to β-lactamase: remarkably stable
[3]; [24]
  Solubility: Hardly soluble
[3]; [25]
  Solubility: Easily soluble
[18]
  Relative ratio of hydrolysis rate: < 0.01
[19]
  Relative ratio of hydrolysis rate: < 0.01
[20]
  Relative ratio of hydrolysis rate: < 0.01
[21]
  Relative ratio of hydrolysis rate: < 0.01
[4]
  ED50: 18.2 mg/kg
[5]
  MIC: > 50 µg/mL
[6]
  MIC: 25 µg/mL (≈ 36.4 µM)
[7]
  MIC: 50 µg/mL (≈ 72.7 µM)
[8]
  MIC: 12.5 µg/mL (≈ 18.2 µM)
[9]
  MIC: 50 µg/mL (≈ 72.7 µM)
[10]
  MIC: 6.25 µg/mL (≈ 9.09 µM)
[11]
  MIC: 50 µg/mL (≈ 72.7 µM)
[12]
  MIC: 50 µg/mL (≈ 72.7 µM)
[13]
  MIC: 1.56 µg/mL (≈ 2.27 µM)
[14]
  MIC: 6.25 µg/mL (≈ 9.09 µM)
[15]
  MIC: 50 µg/mL (≈ 72.7 µM)
[16]
  MIC: > 50 µg/mL
[17]
  MIC: 12.5 µg/mL (≈ 18.2 µM)

## CC(N)C(=O)NC(C)C(=O)NC(C)C(=O)NC(CCCNC(=N)N)C(O)CC(=O)OCC1=C(C(=O)O)N2C(=O)C(NC=O)(NC(=O)CCCC(N)C(=O)O)C2SC1 (centres unmarked) [TAN-547 C]
[1]; acidic aqueous solution
  Stability: Unstable
[1]; basic aqueous solution
  Stability: Unstable
[1]; neutral aqueous solution
  Stability: slightly unstable
[2]
  Property of the substance: Amphoteric substance
[22]
  death: no death was observed
[23]
  stability to β-lactamase: remarkably stable
[3]; [24]
  Solubility: Hardly soluble
[3]; [25]
  Solubility: Easily soluble
[18]
  Relative ratio of hydrolysis rate: < 0.01
[19]
  Relative ratio of hydrolysis rate: < 0.01
[20]
  Relative ratio of hydrolysis rate: < 0.01
[21]
  Relative ratio of hydrolysis rate: < 0.01
[4]
  ED50: 16.2 mg/kg
[5]
  MIC: > 50 µg/mL
[6]
  MIC: 25 µg/mL (≈ 30.1 µM)
[7]
  MIC: 50 µg/mL (≈ 60.2 µM)
[8]
  MIC: 12.5 µg/mL (≈ 15.1 µM)
[9]
  MIC: 50 µg/mL (≈ 60.2 µM)
[10]
  MIC: 12.5 µg/mL (≈ 15.1 µM)
[11]
  MIC: 50 µg/mL (≈ 60.2 µM)
[12]
  MIC: 50 µg/mL (≈ 60.2 µM)
[13]
  MIC: 6.25 µg/mL (≈ 7.53 µM)
[14]
  MIC: 12.5 µg/mL (≈ 15.1 µM)
[15]
  MIC: 25 µg/mL (≈ 30.1 µM)
[16]
  MIC: > 50 µg/mL
[17]
  MIC: 12.5 µg/mL (≈ 15.1 µM)

## CC(N)C(=O)NC(C)C(=O)NC(CCCNC(=N)N)C(O)CC(=O)OCC1=C(C(=O)O)N2C(=O)C(NC=O)(NC(=O)CCCC(N)C(=O)O)C2SC1 (centres unmarked) [TAN-547 B]
[1]; acidic aqueous solution
  Stability: Unstable
[1]; basic aqueous solution
  Stability: Unstable
[1]; neutral aqueous solution
  Stability: slightly unstable
[2]
  Property of the substance: Amphoteric substance
[23]
  stability to β-lactamase: remarkably stable
[3]; [24]
  Solubility: Hardly soluble
[3]; [25]
  Solubility: Easily soluble
[18]
  Relative ratio of hydrolysis rate: < 0.01
[19]
  Relative ratio of hydrolysis rate: < 0.01
[20]
  Relative ratio of hydrolysis rate: < 0.01
[21]
  Relative ratio of hydrolysis rate: < 0.01
[4]
  ED50: 17.2 mg/kg
[5]
  MIC: > 50 µg/mL
[6]
  MIC: 25 µg/mL (≈ 32.9 µM)
[7]
  MIC: 25 µg/mL (≈ 32.9 µM)
[8]
  MIC: 12.5 µg/mL (≈ 16.5 µM)
[9]
  MIC: 50 µg/mL (≈ 65.9 µM)
[10]
  MIC: 6.25 µg/mL (≈ 8.24 µM)
[11]
  MIC: 50 µg/mL (≈ 65.9 µM)
[12]
  MIC: 50 µg/mL (≈ 65.9 µM)
[13]
  MIC: 3.13 µg/mL (≈ 4.12 µM)
[14]
  MIC: 6.25 µg/mL (≈ 8.24 µM)
[15]
  MIC: 25 µg/mL (≈ 32.9 µM)
[16]
  MIC: > 50 µg/mL
[17]
  MIC: 12.5 µg/mL (≈ 16.5 µM)

## CC(N)C(=O)NC(C)C(=O)NC(CCCNC(=N)N)C(O)CC(=O)OCC1=C(C(=O)O)N2C(=O)C(NC(=O)CCCC(N)C(=O)O)C2SC1 (centres unmarked) [TAN-547 E]
[1]; acidic aqueous solution
  Stability: Slightly unstable
[1]; basic aqueous solution
  Stability: Unstable
[1]; neutral aqueous solution
  Stability: Slightly unstable
[2]
  Property of the substance: Amphoteric substance
[3]; [24]
  Solubility: Hardly soluble
[3]; [25]
  Solubility: Easily soluble
[4]
  ED50: 21 mg/kg
[5]
  MIC: 25 µg/mL (≈ 34.9 µM)
[6]
  MIC: 50 µg/mL (≈ 69.9 µM)
[7]
  MIC: 50 µg/mL (≈ 69.9 µM)
[8]
  MIC: 1.56 µg/mL (≈ 2.18 µM)
[9]
  MIC: 100 µg/mL (≈ 140 µM)
[10]
  MIC: 12.5 µg/mL (≈ 17.5 µM)
[11]
  MIC: > 100 µg/mL
[12]
  MIC: > 100 µg/mL
[13]
  MIC: 100 µg/mL (≈ 140 µM)
[14]
  MIC: 3.13 µg/mL (≈ 4.37 µM)
[15]
  MIC: 50 µg/mL (≈ 69.9 µM)
[16]
  MIC: > 100 µg/mL
[17]
  MIC: 1.56 µg/mL (≈ 2.18 µM)
